{"source": "ChEMBL document CHEMBL5518206", "about": "“Hit-to-Lead Identification and Validation of a Triaromatic Pleuromutilin Antibiotic Candidate” (J Med Chem, 2024)", "key": {"[1]": {"experiment": "Cmax in NMRI female mouse at 20 mg/kg, sc by HPLC analysis", "assay_type": "ADME, organism-based", "settings": "in vivo"}, "[2]": {"experiment": "Volume of distribution in pig plasma at 3 mg/kg, iv measured upto 240 mins by LC-MS/MS analysis", "assay_type": "ADME, organism-based, Sus scrofa"}, "[3]": {"experiment": "Half life in pig urine at 3 mg/kg, iv measured upto 240 mins by LC-MS/MS analysis", "assay_type": "ADME, organism-based, Sus scrofa"}, "[4]": {"experiment": "Tmax in NMRI female mouse at 30 mg/kg, po by HPLC analysis", "assay_type": "ADME, organism-based", "settings": "in vivo"}, "[5]": {"experiment": "Volume of distribution in NMRI female mouse at 20 mg/kg, sc by HPLC analysis", "assay_type": "ADME, organism-based", "settings": "in vivo"}, "[6]": {"experiment": "Tmax in pig urine at 10 mg/kg, po measured upto 240 mins by LC-MS/MS analysis", "assay_type": "ADME, organism-based, Sus scrofa"}, "[7]": {"experiment": "Volume of distribution in NMRI female mouse at 30 mg/kg, iv by HPLC analysis", "assay_type": "ADME, organism-based", "settings": "in vivo"}, "[8]": {"experiment": "Elimination rate constant in pig plasma at 10 mg/kg, po measured upto 240 mins by LC-MS/MS analysis", "assay_type": "ADME, organism-based, Sus scrofa"}, "[9]": {"experiment": "Elimination rate constant in pig urine at 3 mg/kg, iv measured upto 240 mins by LC-MS/MS analysis", "assay_type": "ADME, organism-based, Sus scrofa"}, "[10]": {"experiment": "Clearance in NMRI female mouse at 20 mg/kg, sc by HPLC analysis", "assay_type": "ADME, organism-based", "settings": "in vivo"}, "[11]": {"experiment": "Elimination rate constant in NMRI female mouse at 20 mg/kg, sc by HPLC analysis", "assay_type": "ADME, organism-based", "settings": "in vivo"}, "[12]": {"experiment": "Bioavailability in NMRI female mouse at 60 mg/kg, sc by HPLC analysis", "assay_type": "ADME, organism-based", "settings": "in vivo"}, "[13]": {"experiment": "Plasma Concentration in pig at 3 mg/kg, iv measured upto 240 mins by LC-MS/MS analysis", "assay_type": "ADME, organism-based, Sus scrofa"}, "[14]": {"experiment": "AUC (0 to infinity) in NMRI female mouse at 30 mg/kg, iv by HPLC analysis", "assay_type": "ADME, organism-based", "settings": "in vivo"}, "[15]": {"experiment": "Cmax in pig urine at 10 mg/kg, po measured upto 240 mins by LC-MS/MS analysis", "assay_type": "ADME, organism-based, Sus scrofa"}, "[16]": {"experiment": "AUC (0 to infinity) in pig plasma at 10 mg/kg, po measured upto 240 mins by LC-MS/MS analysis", "assay_type": "ADME, organism-based, Sus scrofa", "settings": "in vivo, 4 h"}, "[17]": {"experiment": "AUC (0 to infinity) in NMRI female mouse at 60 mg/kg, sc by HPLC analysis", "assay_type": "ADME, organism-based", "settings": "in vivo"}, "[18]": {"experiment": "Cmax in NMRI female mouse at 30 mg/kg, po by HPLC analysis", "assay_type": "ADME, organism-based", "settings": "in vivo"}, "[19]": {"experiment": "Half life in pig plasma at 3 mg/kg, iv measured upto 240 mins by LC-MS/MS analysis", "assay_type": "ADME, organism-based, Sus scrofa"}, "[20]": {"experiment": "Plasma concentration in pig at 10 mg/kg, po measured upto 240 mins by LC-MS/MS analysis", "assay_type": "ADME, organism-based, Sus scrofa"}, "[21]": {"experiment": "Bioavailability in NMRI female mouse at 20 mg/kg, sc by HPLC analysis", "assay_type": "ADME, organism-based", "settings": "in vivo"}, "[22]": {"experiment": "Tmax in pig plasma at 3 mg/kg, iv measured upto 240 mins by LC-MS/MS analysis", "assay_type": "ADME, organism-based, Sus scrofa"}, "[23]": {"experiment": "AUC (0 to infinity) in pig plasma at 3 mg/kg, iv measured upto 240 mins by LC-MS/MS analysis", "assay_type": "ADME, organism-based, Sus scrofa", "settings": "in vivo, 4 h"}, "[24]": {"experiment": "Bioavailability in NMRI female mouse at 30 mg/kg, po by HPLC analysis", "assay_type": "ADME, organism-based", "settings": "in vivo"}, "[25]": {"experiment": "Clearance in pig urine at 3 mg/kg, iv measured upto 240 mins by LC-MS/MS analysis", "assay_type": "ADME, organism-based, Sus scrofa"}, "[26]": {"experiment": "AUC (0 to infinity) in NMRI female mouse at 20 mg/kg, sc by HPLC analysis", "assay_type": "ADME, organism-based", "settings": "in vivo"}, "[27]": {"experiment": "Elimination rate constant in NMRI female mouse at 60 mg/kg, sc by HPLC analysis", "assay_type": "ADME, organism-based", "settings": "in vivo"}, "[28]": {"test_system": "Staphylococcus aureus", "experiment": "(§1) Induction of resistant development in lefamulin 5 passages resistance developed Staphylococcus aureus USA300 FPR3757 assessed as fold increase in MIC at sub-MIC concentration measured after 25 passages with conjugate by serial passage assay", "assay_type": "functional"}, "[29]": {"test_system": "Staphylococcus aureus", "experiment": "(§2) Induction of resistant development in linezolid 5 passages resistance developed Staphylococcus aureus USA300 FPR3757 assessed as fold increase in MIC at sub-MIC concentration measured after 5 passages with conjugate by serial passage assay", "assay_type": "functional"}, "[30]": {"target": "ATP-dependent translocase ABCB1 (Homo sapiens, UniProt P08183)", "sequence (P08183 whole entry)": "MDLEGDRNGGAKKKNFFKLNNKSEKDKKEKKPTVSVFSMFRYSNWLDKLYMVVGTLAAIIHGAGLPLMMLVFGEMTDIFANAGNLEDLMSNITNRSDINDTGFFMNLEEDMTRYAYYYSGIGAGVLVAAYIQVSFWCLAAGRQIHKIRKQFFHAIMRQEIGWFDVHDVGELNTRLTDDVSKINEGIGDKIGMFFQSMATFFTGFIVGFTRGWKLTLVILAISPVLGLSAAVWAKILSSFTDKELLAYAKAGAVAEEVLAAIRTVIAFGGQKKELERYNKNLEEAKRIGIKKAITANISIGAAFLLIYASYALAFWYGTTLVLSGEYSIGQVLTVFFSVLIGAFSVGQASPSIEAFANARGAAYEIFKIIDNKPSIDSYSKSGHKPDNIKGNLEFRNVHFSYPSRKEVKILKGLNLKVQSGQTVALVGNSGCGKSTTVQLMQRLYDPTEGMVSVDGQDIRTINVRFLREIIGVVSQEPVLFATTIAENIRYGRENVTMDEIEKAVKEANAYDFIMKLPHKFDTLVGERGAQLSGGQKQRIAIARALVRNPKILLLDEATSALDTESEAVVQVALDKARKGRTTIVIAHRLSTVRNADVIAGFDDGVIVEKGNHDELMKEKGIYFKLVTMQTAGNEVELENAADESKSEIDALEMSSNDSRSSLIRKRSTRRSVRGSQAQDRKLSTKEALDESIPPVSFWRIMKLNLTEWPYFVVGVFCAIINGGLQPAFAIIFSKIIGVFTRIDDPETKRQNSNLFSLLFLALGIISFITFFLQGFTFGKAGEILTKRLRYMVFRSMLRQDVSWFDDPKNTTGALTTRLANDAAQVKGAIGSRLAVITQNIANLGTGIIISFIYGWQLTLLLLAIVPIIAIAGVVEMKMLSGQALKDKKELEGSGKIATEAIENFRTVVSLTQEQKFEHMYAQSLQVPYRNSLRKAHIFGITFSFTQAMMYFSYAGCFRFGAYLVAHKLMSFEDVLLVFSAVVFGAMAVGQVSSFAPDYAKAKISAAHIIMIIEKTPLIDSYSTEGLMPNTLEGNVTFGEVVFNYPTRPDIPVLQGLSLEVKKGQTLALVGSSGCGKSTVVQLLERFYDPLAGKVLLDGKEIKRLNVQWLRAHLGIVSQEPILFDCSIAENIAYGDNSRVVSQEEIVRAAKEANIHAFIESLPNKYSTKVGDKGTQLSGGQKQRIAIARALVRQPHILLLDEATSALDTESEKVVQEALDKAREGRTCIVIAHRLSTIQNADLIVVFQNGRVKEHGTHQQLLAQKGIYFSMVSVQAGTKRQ", "experiment": "Inhibition of P-gp in human Caco-2 cells using digoxin as substrate", "assay_type": "cell-based"}, "[31]": {"test_system": "Staphylococcus aureus", "experiment": "Induction of resistant development in lefamulin 5 passages resistance developed Staphylococcus aureus USA300 FPR3757 assessed as fold increase in MIC at sub-MIC concentration measured after 5 passages with conjugate by serial passage assay", "assay_type": "functional"}, "[32]": {"test_system": "Staphylococcus epidermidis", "experiment": "Antibacterial activity against Staphylococcus epidermidis assessed as inhibition of visible growth incubated for 20 to 24 hrs by microbroth serial dilution assay", "assay_type": "functional, organism-based", "settings": "time 20-24 hrs"}, "[33]": {"test_system": "Staphylococcus aureus", "experiment": "as §1, with “-(6-(6-(Piperazin-1-y1)-9H-purin-9-y)methyl)pyridin-3-y1)-1H-1,2,3-triazol-1-yl)-22-deoxypleuromutilin-16” for “lefamulin 5”", "assay_type": "functional"}, "[34]": {"target": "Cytochrome P450 3A4 (Homo sapiens, UniProt P08684)", "sequence (P08684 whole entry)": "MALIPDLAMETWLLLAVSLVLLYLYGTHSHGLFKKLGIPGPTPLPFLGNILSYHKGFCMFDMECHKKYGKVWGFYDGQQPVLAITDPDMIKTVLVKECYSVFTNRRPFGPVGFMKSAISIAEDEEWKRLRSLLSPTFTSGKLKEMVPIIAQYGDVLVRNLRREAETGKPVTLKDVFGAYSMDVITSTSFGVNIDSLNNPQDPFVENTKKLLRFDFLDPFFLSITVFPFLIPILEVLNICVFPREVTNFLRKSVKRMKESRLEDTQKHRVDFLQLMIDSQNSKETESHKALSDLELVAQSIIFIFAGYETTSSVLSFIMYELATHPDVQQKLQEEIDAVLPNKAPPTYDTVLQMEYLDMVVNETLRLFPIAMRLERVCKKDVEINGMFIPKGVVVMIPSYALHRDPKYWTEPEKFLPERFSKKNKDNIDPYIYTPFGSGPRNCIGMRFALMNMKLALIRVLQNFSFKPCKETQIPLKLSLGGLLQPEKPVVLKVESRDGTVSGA", "experiment": "Inhibition of CYP3A4 in pooled human liver microsomes using midazolam as substrate", "assay_type": "ADME, Microsome"}, "[35]": {"test_system": "Staphylococcus aureus", "experiment": "Induction of resistant development in lefamulin 5 passages resistance developed Staphylococcus aureus USA300 FPR3757 assessed as fold increase in MIC at sub-MIC concentration measured after 22 passages with conjugate by serial passage assay", "assay_type": "functional"}, "[36]": {"test_system": "Staphylococcus aureus", "experiment": "Induction of resistant development in linezolid 5 passages resistance developed Staphylococcus aureus USA300 FPR3757 assessed as fold increase in MIC at sub-MIC concentration measured after 28 passages with conjugate by serial passage assay", "assay_type": "functional"}, "[37]": {"test_system": "Staphylococcus aureus", "experiment": "Induction of resistant development in lefamulin 5 passages resistance developed Staphylococcus aureus USA300 FPR3757 assessed as fold increase in MIC at sub-MIC concentration measured after 28 passages with conjugate by serial passage assay", "assay_type": "functional"}, "[38]": {"test_system": "Staphylococcus aureus", "experiment": "Induction of resistant development in linezolid 5 passages resistance developed Staphylococcus aureus USA300 FPR3757 assessed as fold increase in MIC at sub-MIC concentration measured after 25 passages with conjugate by serial passage assay", "assay_type": "functional"}, "[39]": {"test_system": "Staphylococcus aureus", "experiment": "as §2, with “in -(6-(6-(Piperazin-1-y1)-9H-purin-9-y)methyl)pyridin-3-y1)-1H-1,2,3-triazol-1-yl)-22-deoxypleuromutilin-16” for “in linezolid 5”, “after 18” for “after 5”", "assay_type": "functional"}, "[40]": {"test_system": "Staphylococcus aureus", "experiment": "Induction of resistant development in linezolid 5 passages resistance developed Staphylococcus aureus USA300 FPR3757 assessed as fold increase in MIC at sub-MIC concentration measured after 18 passages with conjugate by serial passage assay", "assay_type": "functional"}, "[41]": {"target": "Voltage-gated inwardly rectifying potassium channel KCNH2 (Homo sapiens, UniProt Q12809)", "sequence (Q12809 whole entry)": "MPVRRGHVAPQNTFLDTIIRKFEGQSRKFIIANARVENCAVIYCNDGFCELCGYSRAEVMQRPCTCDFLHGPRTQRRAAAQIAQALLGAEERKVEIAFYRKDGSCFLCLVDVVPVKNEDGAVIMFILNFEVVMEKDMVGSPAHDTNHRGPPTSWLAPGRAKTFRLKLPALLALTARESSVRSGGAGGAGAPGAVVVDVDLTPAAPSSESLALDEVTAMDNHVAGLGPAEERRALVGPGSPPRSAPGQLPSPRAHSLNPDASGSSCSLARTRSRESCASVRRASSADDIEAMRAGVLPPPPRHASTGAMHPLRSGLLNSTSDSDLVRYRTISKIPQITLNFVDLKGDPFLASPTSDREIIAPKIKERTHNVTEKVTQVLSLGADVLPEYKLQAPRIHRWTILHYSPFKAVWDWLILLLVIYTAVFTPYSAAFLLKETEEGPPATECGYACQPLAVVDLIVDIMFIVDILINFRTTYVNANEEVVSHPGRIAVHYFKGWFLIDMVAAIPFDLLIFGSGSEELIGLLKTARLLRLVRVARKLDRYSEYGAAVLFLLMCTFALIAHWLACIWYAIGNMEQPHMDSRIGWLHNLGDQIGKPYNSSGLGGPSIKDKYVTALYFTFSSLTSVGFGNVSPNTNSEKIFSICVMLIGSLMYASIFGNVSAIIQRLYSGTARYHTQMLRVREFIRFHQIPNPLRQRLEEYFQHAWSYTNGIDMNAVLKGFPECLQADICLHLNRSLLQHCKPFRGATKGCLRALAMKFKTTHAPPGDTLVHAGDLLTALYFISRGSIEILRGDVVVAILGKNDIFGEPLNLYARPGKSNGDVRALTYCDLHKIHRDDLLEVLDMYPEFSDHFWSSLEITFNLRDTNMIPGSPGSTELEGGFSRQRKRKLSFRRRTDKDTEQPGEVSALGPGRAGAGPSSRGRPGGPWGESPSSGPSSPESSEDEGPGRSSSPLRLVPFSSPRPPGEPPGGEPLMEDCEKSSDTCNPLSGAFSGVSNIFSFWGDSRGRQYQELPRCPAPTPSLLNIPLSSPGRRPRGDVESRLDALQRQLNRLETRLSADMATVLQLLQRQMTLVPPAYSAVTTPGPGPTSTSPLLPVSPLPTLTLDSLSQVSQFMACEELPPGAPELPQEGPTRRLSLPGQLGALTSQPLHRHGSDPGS", "experiment": "Inhibition of K+ ion channel activity of hERG", "assay_type": "toxicity"}, "[42]": {"experiment": "Efflux ratio of apparent permeability from basolateral to apical side over apical to basolateral side in human Caco-2 cells at 10 uM", "assay_type": "ADME, cell-based"}, "[43]": {"test_system": "Staphylococcus aureus", "experiment": "Induction of resistant development in linezolid 5 passages resistance developed Staphylococcus aureus USA300 FPR3757 assessed as fold increase in MIC at sub-MIC concentration measured after 9 passages with conjugate by serial passage assay", "assay_type": "functional"}}, "note": "Activity calls are given as the source filed them. The calls are words filed in the database; no cut-off is given here."}
{"smiles": "C=C[C@]1(C)C[C@@H](OC(=O)Cn2cc(-c3ccc(Cn4cnc5c(N6CCNCC6)ncnc54)nc3)nn2)[C@]2(C)[C@H](C)CC[C@]3(CCC(=O)[C@H]32)[C@@H](C)[C@@H]1O", "values": [{"measurement": "Cmax", "setting": "[1]", "value": 1180, "unit": "ng/mL"}, {"measurement": "Vd", "setting": "[2]", "value": 3.46, "unit": "L/kg"}, {"measurement": "half-life", "setting": "[3]", "value": 27.6, "unit": "min"}, {"measurement": "Tmax", "setting": "[4]", "value": 15, "unit": "min"}, {"measurement": "Vd", "setting": "[5]", "value": 17.1, "unit": "L/kg"}, {"measurement": "Tmax", "setting": "[6]", "value": 60, "unit": "min"}, {"measurement": "Vd", "setting": "[7]", "value": 3.5, "unit": "L/kg"}, {"measurement": "k el at 4 h", "setting": "[8]", "value": 0.000518, "unit": "s⁻¹"}, {"measurement": "k el at 4 h", "setting": "[9]", "value": 0.000418, "unit": "s⁻¹"}, {"measurement": "CL/F", "setting": "[10]", "value": 90.3, "unit": "mL/min/kg"}, {"measurement": "k el", "setting": "[11]", "value": "9.33e-05", "unit": "s⁻¹"}, {"measurement": "bioavailability", "setting": "[12]", "value": 33, "unit": "%"}, {"measurement": "concentration at 4 h", "setting": "[13]", "value": 866, "unit": "ng/mL"}, {"measurement": "AUC", "setting": "[14]", "value": 643, "unit": "µg/mL/min"}, {"measurement": "Cmax", "setting": "[15]", "value": 114, "unit": "ng/mL"}, {"measurement": "AUC", "setting": "[16]", "value": 7.1, "unit": "µg/mL/min"}, {"measurement": "AUC", "setting": "[17]", "value": 428, "unit": "µg/mL/min"}, {"measurement": "Cmax", "setting": "[18]", "value": 8.2, "unit": "ng/mL"}, {"measurement": "half-life", "setting": "[19]", "value": 75, "unit": "min"}, {"measurement": "concentration at 4 h", "setting": "[20]", "value": 49.7, "unit": "ng/mL"}, {"measurement": "bioavailability", "setting": "[21]", "value": 52, "unit": "%"}, {"measurement": "Tmax", "setting": "[22]", "value": 0, "unit": "h"}, {"measurement": "AUC", "setting": "[23]", "value": 35.5, "unit": "µg/mL/min"}, {"measurement": "bioavailability", "setting": "[24]", "value": 0.3, "unit": "%"}, {"measurement": "CL renal at 4 h", "setting": "[25]", "value": 3.67, "unit": "mL/min/kg"}, {"measurement": "AUC", "setting": "[26]", "value": 222, "unit": "µg/mL/min"}, {"measurement": "k el", "setting": "[27]", "value": 0.000102, "unit": "s⁻¹"}]}
{"smiles": "C=C[C@]1(C)C[C@@H](OC(=O)CS[C@@H]2CC[C@@H](N)C[C@H]2O)[C@]2(C)[C@H](C)CC[C@]3(CCC(=O)[C@H]32)[C@@H](C)[C@@H]1O", "note": "[LEFAMULIN]", "values": [{"measurement": "fold change (FC)", "setting": "[28]", "value": 64}, {"measurement": "fold change (FC)", "setting": "[29]", "value": 4}, {"measurement": "IC50", "setting": "[30]", "value": 34.1, "unit": "µM"}, {"measurement": "fold change (FC)", "setting": "[31]", "value": 4}, {"measurement": "Activity", "setting": "[32]", "value": "inactive"}, {"measurement": "fold change (FC)", "setting": "[33]", "value": 64}, {"measurement": "Ki", "setting": "[34]", "value": 0.86, "unit": "µM"}, {"measurement": "fold change (FC)", "setting": "[35]", "value": 32}, {"measurement": "fold change (FC)", "setting": "[36]", "value": 32}, {"measurement": "fold change (FC)", "setting": "[37]", "value": 128}, {"measurement": "fold change (FC)", "setting": "[38]", "value": 32}, {"measurement": "fold change (FC)", "setting": "[39]", "value": 32}, {"measurement": "fold change (FC)", "setting": "[40]", "value": 16}, {"measurement": "IC50", "setting": "[41]", "value": 78.2, "unit": "µM"}, {"measurement": "efflux ratio at 10 µM", "setting": "[42]", "value": 68}, {"measurement": "fold change (FC)", "setting": "[43]", "value": 8}]}
